Patent publication US10537559B2, “Isonitramine compound and composition containing same for preventing or treating metabolic diseases” (INJE UNIVERSITY INDUSTRY-ACADEMIC COOPERATION FOUNDATION, priority 2015, dated 2020)

How the values were obtained:
[1] = tested on: 3T3-L1 mouse preadipocytes; assay: Analysis of triglyceride concentration in differentiated adipocytes; format: cell-based; details: FIG. 2B; adipocytes differentiated 8 days with 100 μM or 500 μM
Method: (§1) 3T3-L1 mouse preadipocytes were cultured in a Dulbecco's modified Eagle's medium (DMEM) supplemented with 10% newborn calf serum (Gibco BRL, NY, USA) and antibiotics (100 U/ml penicillin and 100 μg/ml streptomycin, Gibco BRL, NY, USA) in an incubator under humidification conditions of a temperature of 37 r and 5% CO2.
(§2) Afterwards, the cultured 3T3-L1 mouse cells were treated with 0.5 mM 1-methyl-3-isobutylxanthine purchased from Sigma (St. Louis, Mo.), 1 μM dexamethasone, 1 μg/mL insulin, and 10% fetal bovine serum (FBS, Gibco BRL), and then, cultured for 2 days to induce differentiation. After 2 days, the cultured medium was replaced with a fresh DMEM supplemented with 10% FBS and 1 μg/mL insulin. For the next 4 days, the cultured medium was replaced with a fresh DMEM supplemented with 10% FBS every day.
The concentration of triglyceride in the cells was measured by using a triglyceride reagent purchased from Sigma and a free glycerol reagent.
The adipocytes were differentiated for 8 days with (+)-isonitramine 1 at a concentration of 100 μM or 500 μM, in a 6-well plate.
To analyze the concentration of triglyceride in the cells, the cells were washed with PBS, and then, lysed with 100 μl of a lysis buffer. […]
Following the completion of the culturing, the absorbance of the cells was measured by using a spectrophotometer at a wavelength of 540 nm.

[2] = tested on: PPARγ; assay: RT-PCR mRNA expression in adipocytes: PPARγ; format: cell-based, mouse; details: FIG. 3, β-actin internal control
Method: (§6) According to the manufacturer's instructions, total cell RNA of the undifferentiated adipocytes and differentiated adipocytes was extracted by using Trizol (available from Invitrogen).
(§7) The RNA (4 μg) was reverse-transcribed into cDNA by using M-MLV reverse transcriptase (available from Promega). Accordingly, the expression of peroxisome proliferator-activated receptor γ (PPARγ), CCAAT/enhancer binding protein-α (C/EBPα), adipocyte protein 2 (aP2), lipoprotein lipase (LPL), and adiponectin was each confirmed.
(§8) The variable number of cycles was used to identify the amplification occurred in the linear phase.
(§9) In the PCR amplification, β-actin was used as an internal control group. The PCR products were separated by using 2.0% agarose gel, followed by being visualized by RedSafe nucleic acid staining (available from Intron, Korea) and UV irradiation.

[3] = tested on: metabolic enzymes essential for carbohydrate absorption; assay: Selectivity of inhibition of carbohydrate metabolism enzymes (FIG. 4); format: biochemical; details: 100 μM, as compared with Compound 4 to 6
Method: The mixtures were pre-cultured at a temperature of 37° C. for 10 minutes, and 25 μl of 0.5% starch solution was added thereto, followed by being cultured at a temperature of 37° C. for 10 minutes. Then, the mixtures were cultured again at a temperature of 100° C. for 5 minutes to stop the reaction, and the mixtures were cooled.
25 μl of DNS was added to the cooled reaction solutions, and a color reaction was induced at a temperature of 100° C. for 5 minutes. The resulting solutions were cooled again. The solutions in which the color reaction was induced were transferred to a 96-well plate, and absorbance thereof was measured at a wavelength of 540 nm by using a 96-well microplate reader.
Here, the inhibitory effect was calculated according to Equation 1: Enzymatic inhibitory activity=(1−Ax/A0)×100% [Equation 1] • Ax indicates an absorbance value of a control group • A0 indicates an absorbance value of a test group upon treatment of isonitramine

[4] = molecular target: T1, porcine α-amylase (Sus scrofa, UniProt P00690); assay: Inhibitory effect on porcine α-amylase; format: biochemical; details: FIG. 4; 100 μM, pH 6.8, starch substrate
T1 construct: purchased Sigma
T1 sequence (P00690 16-511): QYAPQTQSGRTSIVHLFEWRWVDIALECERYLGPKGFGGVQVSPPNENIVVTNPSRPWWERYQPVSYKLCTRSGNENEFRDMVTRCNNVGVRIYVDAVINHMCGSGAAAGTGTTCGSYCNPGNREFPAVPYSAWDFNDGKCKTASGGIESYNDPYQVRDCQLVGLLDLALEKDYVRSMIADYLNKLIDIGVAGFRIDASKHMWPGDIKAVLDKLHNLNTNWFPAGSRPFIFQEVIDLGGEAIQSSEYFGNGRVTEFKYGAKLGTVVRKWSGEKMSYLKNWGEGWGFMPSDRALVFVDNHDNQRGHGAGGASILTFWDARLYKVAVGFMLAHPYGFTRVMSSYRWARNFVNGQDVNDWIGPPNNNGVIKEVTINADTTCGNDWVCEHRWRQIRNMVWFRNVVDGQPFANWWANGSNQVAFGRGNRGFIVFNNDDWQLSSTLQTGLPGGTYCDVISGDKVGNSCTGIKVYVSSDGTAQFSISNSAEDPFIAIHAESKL
Method: (§3) A glucose assay kit was purchased for use from Youngdong Company (Seoul, Korea). In addition, from Sigma Company, porcine α-amylase, yeast α-glucosidase, 3,5-dinitrosalicylic acid (DNS), p-nitrophenol glucoside (pNPG), rat intestinal acetone powder, sucrose, and maltose were purchased. Soluble starch was obtained from Samchun Chemical Company (Seoul, Korea), and Acarbose was purchased from Tokyo chemical industry Company (Tokyo, Japan).
5 μl of α-amylase (0.1 U/mL) was diluted with 50 mM phosphate buffer (pH 6.8), and the diluted solution was mixed with each of 100 μM (+)-isonitramine (1) or Compound 2 to 6 of Example 1. In addition, as a positive control group, Acarbose was mixed at the same concentration with (+)-isonitramine (1). […]
25 μl of DNS was added to the cooled reaction solutions, and a color reaction was induced at a temperature of 100° C. for 5 minutes. […] The solutions in which the color reaction was induced were transferred to a 96-well plate, and absorbance thereof was measured at a wavelength of 540 nm by using a 96-well microplate reader.
Here, the inhibitory effect was calculated according to Equation 1: Enzymatic inhibitory activity=(1−Ax/A0)×100% [Equation 1] • Ax indicates an absorbance value of […] upon treatment of isonitramine

[5] = tested on: LPL; assay: RT-PCR mRNA expression in adipocytes: LPL; format: cell-based, mouse; details: FIG. 3, β-actin internal control
Method: as §6, §7, §8, §9

[6] = tested on: zf preproinsulin (insa); assay: Insulin expression in zebrafish embryo (RT-PCR); format: in vivo; details: FIG. 8; zebrafish embryo 96 hpf treated 48 hours
Method: (§4) In the experiment performed to verify the effect on the amount of insulin secretion, the zebrafish embryo underwent 96 hour post-fertilization (hpf) was exuviated, and then, treated with isonitramine for 48 hours. In the experiment performed to verify the effect on gluconeogenesis, 100 mM cyclic AMP (cAMP) and 100 mM dexamethasone (DEX) were simultaneously treated with isonitramine, and then, cultured for 48 hours.
(§5) From the cultured embryo above, TRIzol (available from Invitrogen) was used to isolate mRNA, and the isolated RNA was synthesized to cDNA by using iScript cDNA Synthesis Kit (available from Bio-Rad). Afterwards, to amplify the cDNA, primers listed in Table 2 were used, wherein each primer was purchased from Bioneer.

[7] = tested on: HIT-T15 cells; assay: Insulin secretion of HIT-T15 cells (insulin ELISA); format: cell-based; details: FIG. 7
Method: To identify effects of isonitramine derivatives on insulin secretion, a type of insulin cells, e.g., HIT-T15 cells, were obtained by the Korean Cell Line Back, and then, subcultured. In detail, the HIT-T15 cells were cultured in a RPMI1640 medium (available from invitrogen. Co, USA) supplemented with 10% fetal bovine serum (FBS, available from invitrogen. Co, New Zealand 10091-148), 100 mu/ml of penicillin, and 100 μg/ml of streptomycin, under humidification conditions of a temperature of 37° C. and 5% CO2.
Insulin secretion influenced by (+)-isonitramine was measured according to the recommended method using insulin ELISA kit (Cat.10-1113-01, available from Mercodia Company). First, the HIT-T15 cells were loaded to a 96-well plate at a concentration of 5×10^4 cells/well, and cultured until reaching 70% to 80% cell confluency in an incubator at a temperature of 37° C. in a CO2 incubator. Then, the cells were pre-treated with 500 μM alloxan, which induces a pancreatic-specific toxic response, for 30 minutes. Afterwards, (+)-isonitramine was added to each well, and cultured for 24 hours. The culture solution was collected therefrom, and subjected to a centrifugation at a speed of about 15,000 rpm for 3 minutes. […] The changes resulted from the termination of the reaction were measured by using an ELISA-reader (VERSA max, micro-reader, MDS. Co, USA) at a wavelength of 450 nm.

[8] = tested on: zebrafish larvae; assay: Zebrafish toxicity (FIG. 5); format: in vivo; details: zebrafish model
[9] = tested on: zebrafish; assay: Postprandial hyperglycemia in diabetic-inducible (streptozocin) zebrafish; format: in vivo; details: FIG. 6; STZ-injected zebrafish fed flake mixed with compound at various concentrations for 1 hour
Method: The zebrafish was anesthetized by placing it in water at a temperature of 8° C. for 20 seconds.
For intraperitoneal injection, 350 mg/kg of a solution of 0.9% streptozocin (available from Sigma, St. Louis, Mo.) in 0.09% NaCl solution was injected with a syringe having 25 gauge needle (available from Trajan Scientific, Australia). Here, to a control group of zebrafish, the same amount of PBS was injected intraperitoneally. After the completion of the injection, the test and control groups of zebrafish were bread at a temperature of 24° C.
The zerafish was subjected to intraperitoneal injection of STZ or PBS three times (350 mg/kg) for a week. After the final injection, the zerafish was fed with commercial flake food (available from Tetrabits tropical flakes, Tetra, Germany) for 5 days.
After fasting for 24 hours, the zebrafish to which PBS was injected was fed with commercial flask food, and the zebrafish to which STZ was injected was fed with flake mixed with (+)-isonitramine (1) at various concentrations, for 1 hour. Afterwards, plasma blood of each zebrafish was enzymatically measured by using a glucose trinder kit.

[10] = tested on: 3T3-L1 mouse preadipocytes; assay: Cytotoxicity in adipocyte differentiation experiment; format: cell-based; details: FIG. 3; adipocytes
[11] = molecular target: T2, yeast α-glucosidase (Saccharomyces cerevisiae, UniProt P53341); assay: Inhibitory effect on yeast α-glucosidase (pNPG substrate); format: biochemical; details: FIG. 4; 100 μM, pH 5.6, pNPG substrate
T2 construct: purchased Sigma
T2 sequence (P53341 whole entry): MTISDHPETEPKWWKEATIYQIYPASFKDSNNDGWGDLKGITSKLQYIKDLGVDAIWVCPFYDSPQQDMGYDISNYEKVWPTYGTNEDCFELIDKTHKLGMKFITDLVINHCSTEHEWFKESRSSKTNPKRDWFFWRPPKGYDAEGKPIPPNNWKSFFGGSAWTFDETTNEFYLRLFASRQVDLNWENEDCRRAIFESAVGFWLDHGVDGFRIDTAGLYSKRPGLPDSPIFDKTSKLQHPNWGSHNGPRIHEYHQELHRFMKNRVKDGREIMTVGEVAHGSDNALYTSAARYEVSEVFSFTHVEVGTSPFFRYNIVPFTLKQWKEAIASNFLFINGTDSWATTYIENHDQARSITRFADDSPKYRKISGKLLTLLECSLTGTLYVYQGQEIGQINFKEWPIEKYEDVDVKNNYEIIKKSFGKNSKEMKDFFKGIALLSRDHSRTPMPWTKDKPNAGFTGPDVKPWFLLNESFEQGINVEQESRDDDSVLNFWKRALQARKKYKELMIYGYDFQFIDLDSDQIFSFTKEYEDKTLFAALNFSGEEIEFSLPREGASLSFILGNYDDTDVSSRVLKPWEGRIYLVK
Method: as §3
5 μl of […] (0.1 U/mL) was diluted with 50 mM sodium acetate buffer (pH 5.6), and the diluted solution was mixed with each of 100 μM (+)-isonitramine (1) or Compound 2 to 6 of Example 1. In addition, as a positive control group, Acarbose was mixed at the same concentration with (+)-isonitramine (1).
The mixtures were pre-cultured at a temperature of 37° C. for 10 minutes, and 25 μl of pNPG was added thereto, followed by being cultured at a temperature of 60° C. for 10 minutes. Then, 1N NaOH was added thereto to stop the reaction.
Afterwards, the resulting solution in which a color reaction was induced was transferred to a 96-well plate, and absorbance thereof was measured at a wavelength of 405 nm by using a 96-well microplate reader.

[12] = tested on: C/EBPα; details: FIG. 3; RT-PCR, β-actin internal control
Method: as §6, §7, §8, §9

[13] = tested on: adiponectin; assay: RT-PCR mRNA expression in adipocytes: adiponectin; format: cell-based, mouse; details: FIG. 3, β-actin internal control
Method: as §6, §7, §8, §9

[14] = tested on: aP2; assay: RT-PCR mRNA expression in adipocytes: aP2; format: cell-based, mouse; details: FIG. 3, β-actin internal control
Method: as §6, §7, §8, §9

[15] = tested on: phosphoenolpyruvate carboxykinase (PEPCK); assay: PEPCK expression in zebrafish embryo (RT-PCR); format: in vivo; details: FIG. 9, with 100 mM cAMP and 100 mM dexamethasone, 48 hours
Method: as §4, §5

[16] = tested on: 3T3-L1 mouse preadipocytes; assay: Adipocyte differentiation of 3T3-L1 preadipocytes (Nile red staining); format: cell-based; details: FIG. 2A
Method: as §1, §2
The undifferentiated or differentiated cells were washed three times with phosphate-buffered saline (PBS), and then, fixed with 4% […] (PFA) at room temperature for 1 hour. Afterwards, the resulting cells were washed three times with PBS, and stained with 0.5 μg/ml of nile red (available from Sigma, St. Louis, Mo.) for 10 minutes. Following the completion of the staining, the resulting cells were washed with PBS, and the nuclei thereof were stained again with 4′-6-diamidino-2-phenylindole, (DAPI, available from Invitrogen). […]

SMILES | concentration of triglyceride [1] | mRNA expression of PPARγ [2] | selective inhibitory effects on metabolic enzymes essential for carbohydrate absorption [3] | inhibition of α-amylase [4] | mRNA expression of LPL [5] | expression of insulin [6] | insulin secretion ([7]; HIT-T15 cells pre-treated with 500 μM alloxan 30 minutes, then compound 24 hours) | cardiovascular toxicity [8] | developmental toxicity [8] | blood glucose [9] | cytotoxicity [10] | inhibition of α-glucosidase [11] | mRNA expression of C/EBPα [12] | mRNA expression of adiponectin [13] | mRNA expression of aP2 [14] | inhibitory effect on the expression of PEPCK [15] | differentiation of 3T3-L1 mouse preadipocytes into mature adipocytes [16] | insulin secretion ([7]; HIT-T15 cells treated with 500 μM alloxan, normal state 33.39±1.12 ng/mL (n=4))
O[C@@H]1CCCC[C@]12CCCNC2 [(+)-isonitramine (1), (+)-isonitramine] | decreased the concentration of triglyceride in a concentration-dependent manner | inhibited | selective inhibitory effects | hardly inhibited | weakened | increased | increasing the insulin secretion in a concentration-dependent manner | no | no | reduction of blood glucose in a concentration-dependent manner | without cytotoxicity | inhibiting | inhibited | weakened | weakened | significantly increased in proportion to the concentration | inhibited the differentiation | –
O=C1NC(=O)C(=O)C(=O)N1 [alloxan, reference compound] | – | – | – | – | – | – | – | – | – | – | – | – | – | – | – | – | – | 18.92 ± 0.43 ng/mL
